In patent publication US20230069963A1, “PYRAZOLO[1,5-A]PYRIMIDINE MACROCYCLIC COMPOUND” (priority 2018, published 2023):
Where a name gives a salt, the structure may show the parent alone.

system: RSV ATCC VR-1540 (A2); assay: microbe, parasite or virus in culture; assay type: cell-based; conditions: human respiratory syncytial virus, HEp-2, 96 h; Hep2 cells, incubated for 4 days, CPE detected with XTT assay (absorbance 450 nm); read-out: EC50 (nmol/L) against RSV A2 strain

Compared with `CC1Oc2ccc(F)cc2C(=O)N2CCCCC2c2cc3nc(N4CC(N)C4)cc(n3n2)N(C)CCNC1=O` [Example 12, (18aS)-13-(3-aminoazetidin-1-yl)-2-fluoro-6,11-dimethyl-8,9,10,11,19,20,21,22-octahydro-18aH,24H-18,15-(metheno)pyrido[2,1-l]pyrimido[6,1-h][1,4,7,9,10,13]benzoxapentaazacyclohexadecine-7,24(6H)-dione], `Cc1ccc2c(c1)C(=O)N1CCCC[C@H]1c1cc3nc(N4CC(N)C4)cc(n3n1)N(C)CCN(S(C)(=O)=O)CCO2` [Example 180, (18aS)-13-(3-aminoazetidin-1-yl)-8-(methanesulfonyl)-2,11-dimethyl-6,7,8,9,10,11,19,20,21,22-decahydro-18aH,24H-18,15-(metheno)pyrido[2,1-l]pyrimido[6,1-h][1,4,7,9,10,13]benzoxapentaazacyclohexadecin-24-one] is higher in EC50: about 2 nmol/L for the first, 33 nmol/L for the second. The first is the more potent here.

`CN1CCCCS(=O)(=O)NC(C)(c2ccc(F)cc2)C(=O)N2CCCC[C@H]2c2cc3nc(N4CC(O)C4)cc1n3n2` (stereo partly drawn) [Example 377, (18aS)-12-(4-fluorophenyl)-3-(3-hydroxyazetidin-1-yl)-5,12-dimethyl-6,7,8,9,11,12,16,17,18,18a-decahydro-5H,15H-19,1-(metheno)-10λ^6-pyrido[1,2-e]pyrimido[1,6-i][1,2,5,8,9,11]thiapentaazacyclopentadecine-10,10,13-trione] and `CCN1CCCS(=O)(=O)Nc2ccc(F)cc2C(=O)N2CCCC[C@H]2c2cc3nc(N4CCC4)cc1n3n2` [Example 318, (23aS)-18-(azetidin-1-yl)-16-ethyl-8-fluoro-1,3,4,13,14,15,16,23a-octahydro-2H,6H-23,20-(metheno)-12λ^6-pyrido[2,1-k]pyrimido[6,1-g][2,1,6,8,9,12]benzothiapentaazacyclopentadecine-6,12,12(11H)-trione] are the same in EC50: 22.7 nmol/L for the first, 22.7 nmol/L for the second.

First: Cc1c(N2CCC2)nc2cc3nn2c1N(C)CCN(C)C(=O)COc1ccc(F)cc1C(=O)N1CCCC[C@@H]31 [Example 63, (18aS)-13-(azetidin-1-yl)-2-fluoro-8,11,12-trimethyl-8,9,10,11,19,20,21,22-octahydro-18aH, 24H-18,15-(metheno)pyrido[2,1-l]pyrimido[6,1-h][1,4,7,9,10,13]benzoxapentaazacyclohexadecine-7,24(6H)-dione]
Second: CN1CCNC(=O)COc2ccc(C3CC3)cc2C(=O)N2CCCC[C@H]2c2cc3nc(C4CC4)cc1n3n2 [Example 99, (18aS)-2,13-dicyclopropyl-11-methyl-8,9,10,11,19,20,21,22-octahydro-18aH,24H-18,15-(metheno)pyrido[2,1-l]pyrimido[6,1-h][1,4,7,9,10,13]benzoxapentaazacyclohexadecine-7,24(6H)-dione]
The EC50 of the first is higher: 2.49 nmol/L for the first, 0.571 nmol/L for the second.

Compared with `Cc1ccc2c(c1)C(=O)N1CCCC[C@H]1c1cc3nc(NCCN)cc(n3n1)N(C)CCCCO2` [Example 245, (23aS)-18-[(2-aminoethyl)amino]-8,16-dimethyl-1,3,4,13,14,15,16,23a-octahydro-2H,6H,12H-23,20-(metheno)pyrido[2,1-k]pyrimido[6,1-g][1,6,8,9,12]benzoxatetraazacyclopentadecin-6-one hydrochloride], `CCc1ccc2c(c1)C(=O)N1CCCC[C@H]1c1cc3nc(OCCN)cc(n3n1)N(C)CCNC(=O)CO2` [Example 50, (18aS)-13-(2-aminoethoxy)-2-ethyl-1-methyl-8,9,10,11,19,20,21,22-octahydro-18aH,24H-18,15-(metheno)pyrido[2,1-l]pyrimido[6,1-h][1,4,7,9,10,13]benzoxapentaazacyclohexadecine-7,24(6H)-dione] is lower in EC50: 4.71 nmol/L for the first, 2.18 nmol/L for the second. The second is the more potent here.

Work on `CC[C@H]1c2cc3nc(N4CC[C@H](N)C4)c(C)c(n3n2)N(C)CCCCNc2ccc(C)cc2C(=O)N1C` [Example 223, (17S)-3-[(3S)-3-aminopyrrolidin-1-yl]-17-ethyl-4,5,13,16-tetramethyl-5,6,7,8,9,10,16,17-octahydro-15H-18,1-(metheno)pyrimido[6,1-g][1,6,8,9,12]benzopentaazacyclopentadecin-15-one] yielded an EC50 of 1.34 nmol/L.
